Reference: article PMC11474028, “Lipopeptide antibiotics disrupt interactions of undecaprenyl phosphate with UptA” (Proceedings of the National Academy of Sciences of the …, 2024)

Target: UptA (Bacillus subtilis, UniProt O31823)
Test: Native MS of phospholipid binding to UptA
Conditions: 4 µM UptA with 10 µM lipid (stated for a15:0-i15:0 lipids); mean of three independent replicates
Source text: Proteins belonging to the DedA family are a widespread family of transporters and are proposed to flip diverse lipids, including carrier lipids and membrane phospholipids. We therefore probed the interaction of UptA with membrane phospholipids to understand whether the latter could modulate its function. For this purpose, we selected anionic phosphatidylglycerols (PG) and zwitterionic phosphatidylethanolamines (PE), representing the major classes of phospholipid headgroups found in B. subtilis ([41], [42]). We recorded mass spectra of solutions containing 4 µM UptA incubated with 10 µM a15:0-i15:0 PE and 10 µM a15:0-i15:0 PG (a15:0, anteiso-pentadecanoic acid; i15:0, iso-pentadecanoic acid). The fatty acid composition of these lipids closely mimics those of native B. subtilis lipids (see below). The resulting spectra display peaks corresponding to UptA in apo and lipid-bound forms in both cases (Fig. 4 A and B). […] We therefore hypothesize that UptA interacts more favorably with PG than with PE.
To verify the lipid binding preference of UptA with more native-like lipids, we prepared lipid extracts from B. subtilis membranes (Materials and Methods). We then incubate an aliquot of the resulting crude lipids (SI Appendix, Fig. S8) with UptA. The spectra yielded peaks assigned to UptA in complex with cardiolipins (~1,326 Da) and a range of phospholipids, predominantly 694 Da, 721 Da, 748 Da, and 776 Da species (Fig. 4 D and E). To identify these lipids, we performed tandem MS/MS, isolating the lipid species and subjecting it to collisional activation. […] The fatty acid fragments are mixed populations, predominantly 15:0-15:0, 15:0-17:0, 16:0-16:0, and 16:0-18:1 (SI Appendix, Fig. S9) which are the typical fatty acids from B. subtilis membrane phospholipids ([42]). We therefore conclude that UptA interacts more favorably with the anionic cardiolipins and phosphatidylglycerols than with the zwitterionic phosphatidylethanolamines in the membrane lipid extracts.
Detailed experimental procedures are provided in SI Appendix. Briefly, UptA (wild type and mutants) was expressed in E. coli C43(DE3) cells (Lucigen) with GFP fusion on the C-terminus and solubilized from the membrane fraction by n-dodecyl-β-D-maltopyranoside (DDM). After purification by affinity chromatography, the GFP was cleaved by TEV protease and removed, and UptA was further purified by size-exclusion chromatography in a buffer containing 20 mM Tris-HCl (pH 8.0), 200 mM NaCl, 0.02% DDM. Before measurements, proteins were buffer-exchanged into 0.05% LDAO, 200 mM ammonium acetate at the desired pH using a centrifugal buffer exchange device (Micro Bio-Spin 6, Bio-Rad). Stock solutions of lipids were prepared from chloroform/methanol solution by evaporating aliquots of known volume in a SpeedVac. After drying, the lipid films were weighed and resuspended to a final concentration of 0.5 mM in 200 mM ammonium acetate and 0.05% LDAO by vertexing. Stock solutions of 0.5 mM amphomycin, aspartocin D, daptomycin, polymyxin B, polymyxin E, and bacitracin were made in the same buffer. All experiments were repeated three times from newly prepared stock solutions. Native mass spectrometry was performed on a Q-Exactive hybrid quadrupole-Orbitrap mass spectrometer (Thermo Fisher Scientific, Bremen, Germany), and lipid identification was performed on an Orbitrap Eclipse Tribrid mass spectrometer (Thermo). […]
Lipid extracts from B. Subtilis
B. subtilis strain 168 (ATCC 23857) was cultivated in […] LB media at 37 °C until OD600 nm 1.2 under aurobic conditions. Cells were harvested by centrifugation at 4,000 g for 20 minutes and resuspended in 20 mM Tris-HCl (pH 8.0), 150 mM NaCl. Cells were lysed by 5-6 passes through a microfluidizer at 20,000 psi. The lysates were clarified by centrifugation at 4,000 g for 10 minutes, and the totoal membrane was pelleted at 120,000 g for 1 h. The membrane pellet was ressupended […]

UptA, sequence (O31823 whole entry): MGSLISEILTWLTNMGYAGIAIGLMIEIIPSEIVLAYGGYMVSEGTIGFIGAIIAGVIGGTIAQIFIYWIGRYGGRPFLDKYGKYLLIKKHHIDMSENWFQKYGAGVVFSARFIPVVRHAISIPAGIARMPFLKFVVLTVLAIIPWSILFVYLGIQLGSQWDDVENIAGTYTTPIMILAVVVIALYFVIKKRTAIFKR

## CC(C)=CCC/C(C)=C/CC/C(C)=C/CC/C(C)=C\CC/C(C)=C\CC/C(C)=C\CC/C(C)=C\CC/C(C)=C\CC/C(C)=C\CC/C(C)=C\CC/C(C)=C\COP(=O)(O)O [C55-P, undecaprenyl phosphate]
  mean relative intensity of UptA in complex with phospholipid, comparison (in words): more intensely than any of these diacylglycerol phospholipids
